In paper PMC9265957, “Bioavailability of Rosehip (Rosa canina L.) Infusion Phenolics Prepared by Thermal, Pulsed Electric Field and High Pressure Processing” (Foods, 2022):
Where two headings read alike, the source gives them in different places. Values belong to the compound of their own block, whether it stands above or below them.

Tests used:
[1] = design: method as in PMID 31100382; details: rats; oral administration; after one hour; cited from earlier work
[2] = design: method as in earlier work; details: mice, cited from earlier work
[3] = design: method as in doi:10.1111/jfpp.16096; details: rosehip infusions by TT, HPP and PEF, depending on the treatment; cited from earlier work
[4] = design: method as in PMID 31100382; details: ex vivo; after one hour; cited from earlier work
Caco-2 cells = assay: Transepithelial transportation of catechin from digests across the Caco-2 monolayer; format: in vitro ADME, Human; details: 4 h; digests diluted 1/5
Method: The in vitro gastrointestinal digestion was simulated regarding the procedures of Ozkan et al. and Sessa et al., with minor modifications. This assay involves two sequential stages: gastric digestion and bile salt/pancreatin digestion. For the gastric digestion, the samples containing 1.3 mg/mL final concentration of pepsin at pH 2 were placed in a water bath (GFL 1092, Burgwedel, Germany) at 37 °C and 100 rpm for a 2 h incubation period. To simulate intestinal digestion, gastric chyme was mixed with 0.175 mg/mL pancreatin and 1.10 mg/mL bile salts at pH 6.5, and then placed in a water bath at 37 °C and 100 rpm for 2 h incubation. […]
The transport trial was carried out based on Wu et al.. […] TEER values of the cells were determined before the experiment, after the last sampling and 24 h after the incubation period. […]
The quantification of phenolic compounds in rosehip infusions was conducted by UPLC based on Ozkan et al., with minor changes. Digests obtained from apical and basolateral sides were analyzed by a Waters Acquity UPLC system (Waters Co., Milford, MA, USA) combined with a diode array detector (DAD). […] Catechin concentration was determined by using its authentic standard. […] The results were expressed as mg catechin per 100 g dw (dry weight) of rosehip. […]

[5] = cited from earlier work
cellular monolayer = system: cellular monolayer; design: method as in doi:10.1021/acsomega.8b03499; details: sweet cherry phenolics; cited from earlier work
[6] = design: method as in PMID 24191680; details: sour cherry fruit and nectar samples, depending on ingredients and processing; cited from earlier work
[7] = design: method as in doi:10.1016/j.jff.2018.10.025; details: rats; after 6 h; cited from earlier work
[8] = design: method as in Rodríguez-Roque et al. [11]; details: fruit juice blends, traditional thermal treatment; ref Rodríguez-Roque et al. [11]; cited from earlier work

Apical Recovery (%) of catechin (Caco-2 cells): 68–69%
Structure (SMILES): O.Oc1cc(O)c2c(c1)O[C@H](c1ccc(O)c(O)c1)[C@@H](O)C2 [catechin, Catechin]
maximum concentration in plasma [1]: 120 ± 3.97 ng/mL | maximum plasma catechin level ([2]; sour mangosteen rind): 1.10 µg/mL | catechin lost after gastrointestinal digestion [3]: 51.8–61.0% | permeation across the intestinal tissue [4]: 12.5 µg

Structure (SMILES): O=C(O[C@@H]1Cc2c(O)cc(O)cc2O[C@@H]1c1ccc(O)c(O)c1)c1cc(O)c(O)c(O)c1 [epicatechin gallate]
amounts in plasma with chocolate food matrix ([5]; five healthy 22-year-old women): reduced | form detected in plasma ([5]; five healthy 22-year-old women): aglycon form

Structure (SMILES): Oc1cc(O)c2c(c1)O[C@H](c1ccc(O)c(O)c1)[C@H](O)C2 [epicatechin]
maximum plasma epicatechin concentration ([2]; sour mangosteen peel): 62.03 µg/mL | amounts in plasma with chocolate food matrix ([5]; five healthy 22-year-old women): no alteration | form detected in plasma ([5]; five healthy 22-year-old women): conjugated metabolites | quantity that crossed the cell monolayer (cellular monolayer): 0.37% | basolateral side recovery [6]: 1.1–3.8%

Structure (SMILES): O=C(O[C@@H]1Cc2c(O)cc(O)cc2O[C@@H]1c1cc(O)c(O)c(O)c1)c1cc(O)c(O)c(O)c1 [epigallocatechin gallate]
amounts in plasma with chocolate food matrix ([5]; five healthy 22-year-old women): reduced | form detected in plasma ([5]; five healthy 22-year-old women): aglycon form

Structure (SMILES): Oc1cc(O)c2c(c1)O[C@H](c1cc(O)c(O)c(O)c1)[C@H](O)C2 [epigallocatechin]
amounts in plasma with chocolate food matrix ([5]; in vivo): no alteration | form detected in plasma ([5]; in vivo): conjugated metabolites

Structure (SMILES): Oc1cc(O)c2c(c1)OC(c1ccc(O)c(O)c1)C(O)C2 (stereo not drawn) [free catechin]
bioavailability (plasma catechin values) [7]: 0.241 µM·h

Structure (SMILES): O=C1O[C@H]([C@@H](O)CO)C(O)=C1O [vitamin C]
bioaccessibility [8]: 11.1%
